How the values were obtained:
Format in all cases: cell-based
[1] = target: T1, BB3 (Homo sapiens, UniProt P32247); test: Dynamic mass redistribution (DMR), concentration-response; conditions: pEC50, DMR (peak), BB3; mean, SEM and n
T1 construct: hIL-2Ra signal peptide (N); expressed in transfected cells
T1 sequence (P32247 2-399 limits assumed): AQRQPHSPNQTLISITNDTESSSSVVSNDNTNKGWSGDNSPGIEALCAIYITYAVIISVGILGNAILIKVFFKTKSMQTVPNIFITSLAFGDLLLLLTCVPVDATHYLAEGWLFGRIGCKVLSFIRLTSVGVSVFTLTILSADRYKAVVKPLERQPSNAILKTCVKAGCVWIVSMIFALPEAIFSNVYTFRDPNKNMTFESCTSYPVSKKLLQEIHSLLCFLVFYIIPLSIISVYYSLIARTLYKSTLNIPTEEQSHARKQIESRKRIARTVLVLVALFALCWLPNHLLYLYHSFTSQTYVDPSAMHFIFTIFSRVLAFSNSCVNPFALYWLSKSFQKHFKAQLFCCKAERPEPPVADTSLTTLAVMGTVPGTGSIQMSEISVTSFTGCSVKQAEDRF

[2] = target: T1, BB3; test: Real-time receptor internalization (TR-FRET), concentration-response; conditions: pEC50, Internalization (AUC)
[3] = target: T2, BB3 (Homo sapiens, UniProt P32247); test: β-arrestin recruitment (Tango), validation; conditions: BB3; mean, SEM and n; read-out: pEC50, Tango (fold over basal) (converted)
T2 construct: host or cells: HTLA cells (HEK293-derived)
T2 sequence (P32247 1-399): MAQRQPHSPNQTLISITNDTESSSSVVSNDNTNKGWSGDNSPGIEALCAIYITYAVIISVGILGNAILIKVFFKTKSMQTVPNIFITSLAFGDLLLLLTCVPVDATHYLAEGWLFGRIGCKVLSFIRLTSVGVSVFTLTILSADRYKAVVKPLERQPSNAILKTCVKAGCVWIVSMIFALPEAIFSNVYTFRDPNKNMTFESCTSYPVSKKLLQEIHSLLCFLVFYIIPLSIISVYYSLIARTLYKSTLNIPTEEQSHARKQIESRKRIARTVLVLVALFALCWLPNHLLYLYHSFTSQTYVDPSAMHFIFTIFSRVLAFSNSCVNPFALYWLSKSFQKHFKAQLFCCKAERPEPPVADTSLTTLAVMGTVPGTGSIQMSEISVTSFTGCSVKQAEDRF
Procedure: The peptide library was additionally screened against 120 GPCR targets in parallel, including all available orphan receptors and 27 known class A peptide receptors using the Tango assay platform ([Kroeze et al., 2015]). Briefly, HTLA cells (a HEK293 cell line stably expressing a tTA-dependent luciferase reporter and a β-arrestin2-TEV fusion gene) were plated 10,000 cells/well in poly-L-lysine–coated clear-bottom white 384-well plates in DMEM supplemented with 10% FBS, 100 U/ml penicillin and 100 μg/ml streptomycin, 2 μg/ml puromycin and 100 μg/ml hygromycin B. 24 hr later, cells were transfected with Tango GPCR constructs using the calcium phosphate method ([Jordan et al., 1996]). The next day, culture medium was changed to DMEM + 1% dFBS and 10 μM peptides were added for overnight stimulation. Bright-Glo solution (Promega) was incubated for 15–20 min at room temperature, and luminescence was counted using a Trilux luminescence counter (Wallac).
For subsequent peptide validation experiments using Tango assays, HTLA cells were transiently transfected in 10 cm dishes with the receptor of interest using polyethylenimine (PEI) ([Longo et al., 2013]). After 24 hr, 25,000 cells/well were plated in clear bottom, white-walled 384-well plates. Assays were performed as described above, with luminescence measured using an EnSpire 2300 Multimode plate reader (PerkinElmer). Luminescence counts were exported into Excel and were analyzed using GraphPad Prism 7.

[4] = target: T1, BB3; test: IP1 accumulation (Gq/11), HTRF; conditions: pEC50, IP1 (nM), BB3; mean, SEM and n
[5] = target: T3, GPR1 (Homo sapiens, UniProt P46091); test: β-arrestin recruitment (PathHunter); conditions: GPR1; mean, SEM and n; read-out: pEC50, PathHunter (fold over basal) (converted)
T3 sequence (P46091 1-355): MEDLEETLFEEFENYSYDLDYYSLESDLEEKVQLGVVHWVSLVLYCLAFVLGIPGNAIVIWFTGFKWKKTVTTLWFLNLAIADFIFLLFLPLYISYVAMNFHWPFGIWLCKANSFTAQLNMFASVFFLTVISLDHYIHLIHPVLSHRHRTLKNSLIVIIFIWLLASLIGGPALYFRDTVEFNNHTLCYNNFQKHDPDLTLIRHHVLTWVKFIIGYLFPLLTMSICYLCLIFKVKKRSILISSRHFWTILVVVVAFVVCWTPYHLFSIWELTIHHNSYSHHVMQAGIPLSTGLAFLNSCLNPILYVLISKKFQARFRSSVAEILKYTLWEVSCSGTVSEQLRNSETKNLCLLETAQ
Procedure: PathHunter eXpress Assays (DiscoverX) were performed in 384-well format according to the manufacturer’s recommendations. GPR1 cells were incubated with peptides for 90 min and luminescence measured using an EnSpire 2300 Multimode plate reader (PerkinElmer).

[6] = target: T3, GPR1; test: β-arrestin recruitment (Tango), validation; set-up: host or cells: HTLA cells (HEK293-derived); conditions: pEC50, Tango (fold over basal), GPR1; mean, SEM and n
[7] = target: T4, GPR68 (Homo sapiens, UniProt Q15743); test: Dynamic mass redistribution (DMR), concentration-response; set-up: hIL-2Ra signal peptide (N); expressed in transfected cells; conditions: receptor GPR68; mean, SEM and n (3-4)
T4 sequence (Q15743 2-365 limits assumed): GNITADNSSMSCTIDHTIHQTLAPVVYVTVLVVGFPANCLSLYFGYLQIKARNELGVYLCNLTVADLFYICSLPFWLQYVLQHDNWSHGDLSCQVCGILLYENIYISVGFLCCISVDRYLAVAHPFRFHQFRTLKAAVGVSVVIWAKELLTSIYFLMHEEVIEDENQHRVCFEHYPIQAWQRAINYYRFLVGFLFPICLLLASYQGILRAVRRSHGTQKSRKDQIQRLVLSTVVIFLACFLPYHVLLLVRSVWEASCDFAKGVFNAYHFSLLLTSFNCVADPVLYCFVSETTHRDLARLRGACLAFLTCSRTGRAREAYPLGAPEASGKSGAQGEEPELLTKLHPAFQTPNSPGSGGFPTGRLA
Procedure: (§1) 48 hr prior to parallel assaying, SNAP-tagged oGPCR cells were plated (10,000 cells/well) in fibronectin-coated 384-well Epic biosensor microplates (Corning) and poly-D-lysine coated white 384-well plates (for internalization assays). SNAP- GLP-1 receptor was plated alongside orphan receptor cells as an internal assay control for internalization assays. Receptor-expression was induced with 0.1 μg/ml doxycycline.
DMR assays provide a single integrated readout of ligand-dependent cellular response, utilizing an optical biosensor in specialized microplates to detect wavelength shifts of reflected light as it passes through the biosensor and the lower portion of the cell (∼150-200 nm). As a signal pathway agnostic approach, DMR assays are well-suited to the study of GPCRs ([Fang et al., 2008], [Schröder et al., 2011]). The mass redistribution response (Δ picometer (pm)) likely reflects a number of intracellular events, including cytoskeletal rearrangement, protein trafficking and receptor internalization. Orphan receptor-expressing cells were gently washed twice with assay buffer (HBSS with 1 mM CaCl2, 1 mM MgCl2, 20 mM HEPES, 0.01% pluronic F-68, pH 7.4) containing 0.1% DMSO and cells were equilibrated for 90 min at 22°C in the EPIC Benchtop (BT) System (Corning) to establish a stable DMR signal. After 3-5 min baseline recordings, peptides (10 μM) were added in duplicate wells using an electronic 384-channel Viaflo pipette (Integra Biosciences, Switzerland) and DMR responses were measured for 60 min at 22°C. 100 nM norepinephrine was included as an internal assay control to assess the cellular DMR response via endogenously-expressed adrenoceptors in the TREx 293 cells. Real-time data were processed using the BT to column converter MS-Excel macro (Corning) and analyzed in GraphPad Prism 7.0. DMR recordings in peptide screening experiments were buffer and solvent corrected and the area under the curve (AUC) was quantified. For subsequent validation experiments, peptides were diluted in assay buffer containing 0.1% DMSO and DMR assays were performed as above. […] Data represent mean ± standard error of the mean (SEM) from at least 3 biologically independent experiments.

[8] = target: T4, GPR68; test: Real-time receptor internalization (TR-FRET), concentration-response; set-up: hIL-2Ra signal peptide (N); expressed in transfected cells; conditions: receptor GPR68; mean, SEM and n (3)
Procedure: as §1
A TR-FRET real-time internalization assay was used to examine peptide-dependent changes in orphan receptor localization as described previously ([Foster and Bräuner-Osborne, 2018]). Surface-expressed SNAP-tagged receptors were labeled with a cell-impermeable luminescent terbium cryptate (100 nM SNAP Lumi4-Tb; Cisbio, France) for 1 hr at 37°C. Cells were washed to remove excess terbium and incubated with fluorescein-O-acetic acid (100 μM; Sigma Aldrich) for 5 min at 37°C. Peptides were added as for DMR assays, and internalization responses were recorded for 60 min at 37°C using an EnVision 2104 Multimode plate reader (PerkinElmer). 100 nM GLP-1 was used as a positive control for SNAP-GLP1R internalization. Real-time internalization responses were calculated based on TR-FRET (excitation 340 nm; emission 520 nm and 615 nm), and were expressed as the ratio between donor (terbium) and acceptor (fluorescein) emission. For peptide screening analysis (both DMR and internalization assays), we calculated the area under the curve from the real-time traces. As the magnitude of the responses was variable between orphan receptor targets, particularly for the SNAP-tag based internalization assay where the signal is dependent on receptor surface expression, the AUC values were normalized to their respective plate averages and expressed as fold change. Validation experiments for receptor internalization were performed as above. Internalization data was processed in MS-Excel and area under the curve was used to generate concentration-response curves using GraphPad Prism 7.0. Data represent mean ± standard error of the mean (SEM) from at least 3 biologically independent experiments.

With `CSCC[C@H](NC(=O)[C@H](CC(C)C)NC(=O)[C@H](Cc1c[nH]cn1)NC(=O)CNC(=O)[C@@H](NC(=O)[C@H](C)NC(=O)[C@H](Cc1c[nH]c2ccccc12)NC(=O)[C@H](Cc1c[nH]cn1)NC(=O)[C@H](CC(N)=O)NC(=O)CNC(=O)[C@H](CCCN=C(N)N)NC(=O)[C@@H]1CCCN1C(=O)[C@H](Cc1ccc(O)cc1)NC(=O)[C@H](CCSC)NC(=O)[C@H](CCCCN)NC(=O)[C@@H](NC(=O)[C@H](CC(C)C)NC(=O)[C@@H](NC(=O)[C@@H](NC(=O)CNC(=O)CNC(=O)CNC(=O)[C@H](C)NC(=O)[C@@H]1CCCN1C(=O)[C@H](CC(C)C)NC(=O)[C@@H]1CCCN1C(=O)[C@@H](N)C(C)C)[C@@H](C)O)C(C)C)[C@@H](C)O)C(C)C)C(N)=O` [Gastrin-releasing peptide (GRP)] the EC50 [1] was 2.04 µM, the EC50 [2] was 14.8 µM and the EC50 [3] was 43.7 µM. The EC50 [4] was 447 nM, the EC50 [5] was 0.398 µM and the EC50 [6] was 5.5 µM.
In the case of RFGIPMDRIGRNRLSNSRG [128 original], the “DMR assays Emax (peak or AUC)” value [7] is reported as 893047 and the “Internalization assays Emax (AUC)” value [8] is reported as 8.3.

— paper PMC6838683, “Discovery of Human Signaling Systems: Pairing Peptides to G Protein-Coupled Receptors” (Cell, 2019)
